Data taken from US11385234B2, “Methods and systems for detecting an analyte or classifying a sample” (Commonwealth Scientific and Industrial Research Organisation, priority 2012, dated 2022).
Where “and” joins values, the source holds several entries; their conditions need not be identical. Equal entries are not always repeated.

Tests used:
GFP^2-RG-RLuc biosensor = assay: Hybrid BRET (BRET^H) thrombin cleavage assay, microplate; format: biochemical; conditions: 54 nM thrombin, 90 minutes, 30° C.; 1 μM fusion protein, 5 μM native coelenterazine
Excerpt: A combination of BRET^1 and BRET^2 techniques was used and referred to herein as hybrid BRET. Specifically, RLuc with native coelenterazine substrate was used as the bioluminescent donor and GFP^2 as the acceptor molecule. The donor and acceptor were linked by a peptide sequence containing the thrombin cleavage site ([…]↓ GSLQ (RG)) (GFP^2-RG-RLuc) and expressed in E. coli.
GFP^2-RG-RLuc biosensor was expressed and purified as reported previously (Dacres et al. 2009a). The purified fusion protein was in thrombin cleavage buffer (10 mM Tris (pH 8.0), 100 mM NaCl, 1 mM EDTA). The final concentration of the native coelenterazine substrate (Biosynth) used for microfluidic based assays was 58.6 μM and 5 μM for plate-reader based assays. 1 unit (U)/μl thrombin protease (Amersham Biosciences) solution was prepared in 1× phosphate buffer saline (PBS).
Simultaneous dual emission hybrid BRET measurements were carried out both in a microplate using a SpectraMax M2 spectrofluorimeter (Molecular Devices) and in the microfluidics apparatus described below. Spectral scans of BRET constructs were recorded using the luminescence scan mode between 400 and 650 nm on addition of 5 μM native coelenterazine substrate to 1 μM of biosensor. […]
Using the microplate spectrometer, hybrid BRET ratios were calculated as the ratio of bioluminescence emissions measured at 500 nm and 470 nm. […]

[1] = test system: GFP^2-RG-RLuc thrombin sensor; assay: BRET^2 thrombin sensor in microfluidic chip with optical detection chamber; format: biochemical
Excerpt: In a BRET^2 system, Renilla luciferase (RLuc) with coelenterazine 400a (CLZ400A) substrate was used as the photon donor and GFP^2 was used as the acceptor molecule. As the luminescence of BRET^2 is 100-fold smaller than that of the BRET^1.5, the BRET^2 reaction requires efficient mixing at optimal temperature, detection chamber size, flow rates and concentrations to produce highest bioluminescence signal. Thus, this system is used to evaluate different mixing mechanisms (FIG. 8), reaction chamber designs and reaction conditions.
PDMS chips with a Y-shaped microchannel with three mixing elements (FIG. 8), with a rectangular cross section in the microchannels (200 μm in width and 30 μm in height) was used to monitor BRET^2 assays. The detection chambers with different diameter and height were located at the end of the microchannels. The emitting bioluminescence was collected by a multimode optical fiber located underneath the detection chamber. The emissions will be split by dichroic block and going through two band pass filters corresponding to emission band of the donor (430 nm-455 nm) and the emission band of the acceptor (515 nm-555 nm) before going into two corresponding photomultiplier tubes (Hamamatsu H7421). […]
Approximately 75% decrease in BRET^2 signal was measured for on-chip reaction at input flow rate of 50 μL/hr (FIG. 12).

[2] = test system: BRET^2 based thrombin biosensor; conditions: cited from earlier work

thrombin
BRET^H ratio following thrombin cleavage (GFP^2-RG-RLuc biosensor): 0.75±0.04 and 0.79±0.05 | decrease in BRET^H ratio following thrombin cleavage (GFP^2-RG-RLuc biosensor): approximately 32% | change in BRET^2 ratio (GFP/RLuc) after digestion of the sensor ([1]; 270 pM thrombin): approximately tenfold | decrease in BRET^2 signal, on-chip reaction ([1]; 540 nM thrombin, 1 μM sensor, 12.5 μM substrate, two-inlet device, 50 μL/hr): Approximately 75% | kcat of thrombin [2]: ≈ 85 s^−1
